From patent US20250026769A1, “PAPD5 INHIBITORS AND METHODS OF USE THEREOF” (The Children's Medical Center Corporation, priority 2021, published 2025) come the findings set out here.

Like-named read-outs stand apart in the source and are kept apart here. Bounds are passed on as bounds.

The subject of test [1] is hepatitis B surface antigen (HBSAg) from HepG2.2.15 cells, a hepatitis B virus-expressing cell line. In words: HBsAg ELISA in supernatant of HepG2.2.15 cells. Type of test: cell-based. The settings on record: HepG2.2.15, 96 h. Here is the method: HepG2.2.15 cells, a hepatitis B virus-expressing cell line (Sells, M. A. et al., PNAS, 1987), were plated at 50,000 cells/well in DMEM/F12 media (Gibco) with 10% fetal bovine serum (Omega Scientific) in a 24-well or 96-well plate (Corning), in 2-3 replicates for each test compound/concentration plus controls, and incubated in a humidified 5% CO2 chamber at 37° C. The next day, media was aspirated, cells were washed once with phosphate buffered saline, pH7.4 (Gibco), and 1 mL DMEM/12 media was replaced. Test compounds were added in 3-fold dilutions from up to 100 μM down to 333 pM, with vehicle (dimethylsulfoxide (Sigma)) as a control. After four days of culture in a humidified 5% CO2 chamber at 37° C., plates were spun down in a centrifuge at 300 g for 10 minutes at room temperature. Supernatant from each well was collected and either frozen at −20° C. or used directly for quantitation of hepatitis B surface antigen (HBSAg) in an enzyme-linked immunosorbent assay (ELISA). The supernatant was tested using the HBSAg ELISA kit (Abnova Cat. No KA0286) per the manufacturer's instructions. Results of replicates were averaged and nonlinear curve fitting was used to determine the half maximal inhibitory concentration (IC50) for each test compound.
(In general: ELISA stands for enzyme-linked immunosorbent assay.)

The target of test [2] is T1, rPAPD5 (Homo sapiens, UniProt Q8NDF8).
T1 construct: made in house
T1 sequence (Q8NDF8 68-698 isoform Q8NDF8-5 limits assumed): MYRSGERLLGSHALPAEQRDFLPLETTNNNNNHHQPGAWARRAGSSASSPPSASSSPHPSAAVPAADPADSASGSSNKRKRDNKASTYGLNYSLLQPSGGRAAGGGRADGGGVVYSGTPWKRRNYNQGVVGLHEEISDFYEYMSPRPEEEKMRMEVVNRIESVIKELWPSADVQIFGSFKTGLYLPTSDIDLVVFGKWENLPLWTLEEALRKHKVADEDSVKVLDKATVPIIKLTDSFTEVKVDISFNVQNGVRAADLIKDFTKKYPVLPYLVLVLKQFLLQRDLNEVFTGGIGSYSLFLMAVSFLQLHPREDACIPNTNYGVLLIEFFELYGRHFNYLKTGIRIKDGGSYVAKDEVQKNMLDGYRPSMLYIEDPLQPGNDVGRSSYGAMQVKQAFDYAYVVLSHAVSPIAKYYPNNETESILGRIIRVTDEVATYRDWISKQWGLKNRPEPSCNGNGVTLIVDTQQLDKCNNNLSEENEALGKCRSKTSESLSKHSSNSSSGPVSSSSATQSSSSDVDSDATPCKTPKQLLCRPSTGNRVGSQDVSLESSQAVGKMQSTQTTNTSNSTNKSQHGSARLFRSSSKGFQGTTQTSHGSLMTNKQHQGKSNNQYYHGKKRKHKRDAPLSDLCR
Kind of test: differential scanning fluorimetry (DSF) binding and stabilization of rPAPD5. The following applies: for ΔTm at 100 µM: 100 μM test compound, read-out: ΔTm at 100 μM; for ΔTm at 1 µM: 1 μM test compound (Table 2a), read-out: ΔTm at 1 μM. Summed up: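 Differential scanning fluorimetry was used to measure how test compounds bind and thermally stabilize rPAPD5. The reaction contained SYPRO orange dye diluted 1:5000 in […] of buffer with […], 25 mM Tris-HCl, 5 mM MgCl2 and 50 mM KCl. ΔTm was calculated relative to a DMSO control.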
Background: In DSF a fluorescence change marks the thermal transition of the protein.

Test [3] relates to TERC 3′ end processing in DC patient iPSCs. In words: TERC 3′ end processing by RACE in DC patient / PARN-mutant iPSCs. Type of test: cell-based, human. The settings on record: Homo sapiens, iPSC; patient iPSCs; concentration class at which activity is seen; read-out: iPSC-based RACE activity. Here is the method: (§1) Compound 266A had activity ˜2-logs higher in the in vitro RNA oligoadenylation assay compared to the parental compound cmpd. 1, approximating the activity of RG7834 (FIG. 7). […] 1. Compounds 295A and 296A had activity 2-3 logs higher in DC patient iPSCs, showing TERC maturation at 1 nM, similar to RG7834 (FIG. 6). […] Referring to Table 1D, “+” refers to activity at 1 μM, “++” refers to activity above 1 nM and below 1 μM, and “+++” refers to activity at <1 nM, “ND” refers to not determined.

The subject of test [4] is telomere length in DC patient iPSCs. Kind of test: telomere length / telomere elongation in DC patient iPSCs. Type of test: cell-based, human. The following applies: Homo sapiens, iPSC; patient iPSCs; concentration class at which activity is seen; read-out: iPSC-based Telomere length. As to the method:
as §1

Where [5] appears, read: 10 μM test compound (Table 2a), read-out: ΔTm at 10 μM.
[6] abbreviates: 10 μM test compound, shift vs DMSO control, read-out: ΔTm (Table 2, starred: the compound was tested at 10 μM).

Usually IC50 stands for the midpoint of a concentration-inhibition curve. Higher therefore signals weaker potency. What is called ΔTm is the shift of the melting midpoint relative to a reference. In turn, `Cc1ccc(Nc2c(C3CCOCC3)cnc3ccc(Cl)cc23)c(C(=O)O)c1` [Compound 305A, 2-[(6-chloro-3-tetrahydropyran-4-yl-4-quinolyl)amino]-5-methyl-benzoic acid] yielded an IC50 in test [1] of 66 nM. Further, the ΔTm at 100 µM in test [2] (shift vs DMSO control) is above 5 °C.

Compound `Cc1ccc(Nc2c(C3=CCOCC3)cnc3ccc(Cl)cc23)c(C(=O)O)c1` [Compound 306A, 2-[[6-chloro-3-(3,6-dihydro-2H-pyran-4-yl)-4-quinolyl]amino]-5-methyl-benzoic acid] returned an IC50 in test [1] of 1050 nM. The ΔTm at 100 µM in test [2] (shift vs DMSO control) was above 5 °C.

In test [1], `COc1ccc(Nc2c(C3CCOCC3)cnc3ccc(Cl)cc23)c(C(=O)O)c1` [Compound 307A, 2-[(6-chloro-3-tetrahydropyran-4-yl-4-quinolyl)amino]-5-methoxy-benzoic acid] gave an IC50 of 1320 nM. In addition, in test [2] (shift vs DMSO control), the ΔTm at 100 µM was above 5 °C.

For the compound `O=C(O)c1cc(Cl)ccc1Nc1c(C2CCSCC2)cnc2ccc(Cl)cc12` [Compound 341A, 5-chloro-2-[(6-chloro-3-tetrahydrothiopyran-4-yl-4-quinolyl)amino]benzoic acid], the minimal effective concentration in test [3] is 0.001 to 1 µM. It took 84 nM to reach half-maximal inhibition in test [1] (IC50). In test [2], the thermal shift (ΔTm) at 1 µM was above 5 °C. In addition, the ΔTm at 10 µM in test [2] (setting [5]) and in test [2] (setting [6]) was above 5 °C throughout.

In the case of `O=C(O)c1cc(Cl)ccc1Nc1c(N2CCSCC2)cnc2ccc(Cl)cc12` [Compound 346A, 5-chloro-2-[(6-chloro-3-thiomorpholino-4-quinolyl)amino]benzoic acid], the minimal effective concentration in test [3] fell in the range of 0.001 to 1 µM. Further, the IC50 in test [1] worked out at 88 nM. Moreover, the ΔTm at 1 µM in test [2] is 1 to 5 °C. Further, the ΔTm at 10 µM in test [2] (setting [5]) was above 5 °C. The ΔTm at 100 µM in test [2] (shift vs DMSO control) was above 5 °C.

Consider `O=C(O)c1cc(Cl)ccc1Nc1c(-c2cn[nH]c2)cnc2ccc(Cl)cc12` [Compound 354A, 5-chloro-2-[[6-chloro-3-(1H-pyrazol-4-yl)-4-quinolyl]amino]benzoic acid], for which the minimal effective concentration in test [3] is 1 µM. Besides, in test [1], half-maximal inhibition (IC50) was put at 3340 nM. Further, the ΔTm at 1 µM in test [2] was in the range of 1 to 5 °C. Further, the ΔTm at 10 µM in test [2] (setting [5]) and in test [2] (setting [6]) was above 5 °C throughout.

Turning to `CN1CC=C(c2cnc3ccc(Cl)cc3c2Nc2ccc(Cl)cc2C(=O)O)CC1` [Compound 367A, 5-chloro-2-[[6-chloro-3-(1-methyl-3,6-dihydro-2H-pyridin-4-yl)-4-quinolyl]amino]benzoic acid], the minimal effective concentration in test [3] came out at 1 µM. The compound also showed an IC50 in test [1] of 902 nM. For the same compound, the ΔTm at 1 µM in test [2] was above 5 °C. For the same compound, the ΔTm at 10 µM in test [2] (setting [5]) is above 5 °C. The ΔTm at 100 µM in test [2] (shift vs DMSO control) was above 5 °C.

For `O=C(O)c1cc(Cl)ccc1Nc1c(N2CCC(=NO)CC2)cnc2ccc(Cl)cc12` [Compound 376A, 5-chloro-2-[[6-chloro-3-(4-hydroxyimino-1-piperidyl)-4-quinolyl]amino]benzoic acid], in test [3], the minimal effective concentration was found to be 1 µM. In test [1], this compound gave an IC50 of 101 nM. In addition, the ΔTm at 1 µM in test [2] was above 5 °C. For the same compound, in test [2] (setting [5]), the ΔTm at 10 µM is above 5 °C. Besides, the ΔTm at 100 µM in test [2] (shift vs DMSO control) was above 5 °C.

On to `O=C1CCN(c2cnc3ccc(Cl)cc3c2Nc2ccc(Cl)cc2C(=O)O)CC1` [Compound 395A, 5-chloro-2-[[6-chloro-3-(4-oxo-1-piperidyl)-4-quinolyl]amino]benzoic acid], for which the minimal effective concentration is 1 µM in test [3] and below 0.001 µM in test [4]. Besides, the ΔTm at 1 µM in test [2] is above 5 °C. In test [2] (setting [5]), the ΔTm at 10 µM is above 5 °C. The ΔTm at 100 µM in test [2] (shift vs DMSO control) is above 5 °C.

For `O=C(O)c1cc(Cl)ccc1Nc1c(N2CCC(O)CC2)cnc2ccc(Cl)cc12` [Compound 399A, 5-chloro-2-[[6-chloro-3-(4-hydroxy-1-piperidyl)-4-quinolyl]amino]benzoic acid], the minimal effective concentration in test [3] and in test [4] was below 0.001 µM throughout. The ΔTm at 1 µM in test [2] was above 5 °C. Moreover, in test [2] (setting [5]), the ΔTm at 10 µM was above 5 °C. In addition, the ΔTm at 100 µM in test [2] (shift vs DMSO control) was above 5 °C.

As for `Cc1cc2ncc(S(=O)(=O)N3CCSCC3)c(Nc3ccc(Cl)cc3C(=O)O)c2cc1Cl` [Compound 411A, 5-chloro-2-[(6-chloro-7-methyl-3-thiomorpholinosulfonyl-4-quinolyl)amino]benzoic acid], the minimal effective concentration in test [3] and in test [4] was below 0.001 µM throughout. Besides, the ΔTm at 1 µM in test [2] is above 5 °C. For the same compound, the ΔTm at 10 µM in test [2] (setting [5]) and in test [2] (setting [6]) was above 5 °C throughout.

Take `O=C(O)c1cc(Cl)ccc1Nc1c(S(=O)(=O)N2CCSCC2)cnc2cc(C(F)(F)F)c(Cl)cc12` [Compound 413A, 5-chloro-2-[[6-chloro-3-thiomorpholinosulfonyl-7-(trifluoromethyl)-4-quinolyl]amino]benzoic acid]: the minimal effective concentration in test [3] and in test [4] was below 0.001 µM in each case. For the same compound, the ΔTm at 1 µM in test [2] lay in the range of 1 to 5 °C. The ΔTm at 10 µM in test [2] (setting [5]) and in test [2] (setting [6]) was above 5 °C throughout.

Take `O=C(O)c1cc(Cl)ccc1Nc1c(S(=O)(=O)N2CCSCC2)cnc2cc(Cl)c(Cl)cc12` [Compound 414A, 5-chloro-2-[(6,7-dichloro-3-thiomorpholinosulfonyl-4-quinolyl)amino]benzoic acid]: the minimal effective concentration in test [3] and in test [4] was below 0.001 µM each time. Besides, the ΔTm at 1 µM in test [2] is above 5 °C. Further, the ΔTm at 10 µM in test [2] (setting [5]) and in test [2] (setting [6]) was above 5 °C in each case.

Consider `O=C(O)c1cc(Cl)ccc1Nc1c(S(=O)(=O)N2CCSCC2)cnc2cc(Br)c(Cl)cc12` [Compound 416A, 2-[(7-bromo-6-chloro-3-thiomorpholinosulfonyl-4-quinolyl)amino]-5-chloro-benzoic acid], for which the minimal effective concentration in test [3] and in test [4] was below 0.001 µM throughout. The ΔTm at 1 µM in test [2] was above 5 °C. Further, the ΔTm at 10 µM in test [2] (setting [5]) and in test [2] (setting [6]) was above 5 °C each time.

For the compound `O=C(O)c1cc(Cl)ccc1Nc1c(S(=O)(=O)N2CCSCC2)cnc2c(C(F)(F)F)cc(Cl)cc12` [Compound 419A, 5-chloro-2-[[6-chloro-3-thiomorpholinosulfonyl-8-(trifluoromethyl)-4-quinolyl]amino]benzoic acid], the minimal effective concentration in test [3] and in test [4] was below 0.001 µM throughout. In addition, in test [2], the ΔTm at 1 µM is above 5 °C. For the same compound, the ΔTm at 10 µM in test [2] (setting [5]) is above 5 °C. Further, the ΔTm at 100 µM in test [2] (shift vs DMSO control) was below 1 °C.

In the case of `O=C(O)c1cc(Cl)ccc1Nc1c(S(=O)(=O)N2CCSCC2)cnc2c(Br)cc(Cl)cc12` [Compound 422A, 2-[(8-bromo-6-chloro-3-thiomorpholinosulfonyl-4-quinolyl)amino]-5-chloro-benzoic acid], the minimal effective concentration in test [3] and in test [4] was below 0.001 µM each time. Further, the ΔTm at 1 µM in test [2] was above 5 °C. In addition, the ΔTm at 10 µM in test [2] (setting [5]) and in test [2] (setting [6]) was above 5 °C throughout.

In the case of `Cc1nc2ccc(Cl)cc2c(Nc2ccc(Cl)cc2C(=O)O)c1S(=O)(=O)N1CCSCC1` [Compound 423A, 5-chloro-2-[(6-chloro-2-methyl-3-thiomorpholinosulfonyl-4-quinolyl)amino]benzoic acid], the minimal effective concentration in test [3] and in test [4] was below 0.001 µM each time. In test [2], the ΔTm at 1 µM was above 5 °C. The ΔTm at 10 µM in test [2] (setting [5]) was above 5 °C. In test [2] (shift vs DMSO control), the ΔTm at 100 µM was above 5 °C.
